Results from US20260069606A1, “Oxidative Stress and Diabetes Treatment with Cobinamide” (The Regents of the University of California, priority 2022, published 2026).

Experiments:
[1] = second order; literature values; cited from earlier work
[2] = literature values; not strictly comparable with third-order constants; cited from earlier work
[3] = second order; literature values; cited from earlier work; remark: listed apart in the source
[4] = literature values, cited from earlier work
[5] = mouse, in vivo
Procedure: It seemed possible, therefore, that the cobinamide administered to the mice could have increased their blood pressure, since ·NO is a potent vasodilator. Because diabetes can increase blood pressure, these studies were performed on a parallel set of non-diabetic mice of the same strain and sex and using the same concentration of histidyl-cobinamide in the drinking water as in the above-described studies.

[6] = tested on: H9c2 rat embryonal cardiomyocytes; test: Mitochondrial superoxide content, MitoSOX Red fluorescence; format: cell-based; conditions: H9c2, 5 μM rotenone 30 min, drugs at 2.5 μM
Procedure: (§1) FIGS. 3A-3H. […] FIGS. 3A-3B. […] FIG. 3A. […] FIG. 3B. […] FIGS. 3C-3D. […] FIG. 3D. […] FIGS. 3E-3F. […] FIG. 3E. Representative blots are shown. […] FIG. 3F. […] FIG. 3G. […] FIG. 3H.
H9c2 cells were plated on glass cover slips in 24 well dishes, and 16 h later the medium was changed to phenol red-free DMEM supplemented with 20 mM Hepes, 0.1% fetal bovine serum, and 0.5% bovine serum albumin. […] MitoSOX Red is a dihydroethidium derivative containing triphenyl-phosphonium, which localizes it to respiring mitochondria. Its reaction with O2·^− yields 2-hydroxy-mitoethidium (2-OH-Mito-E″), whereas its reaction with other oxidative species yields mitoethidium (Mito-E^+)^67. These two oxidative derivatives have overlapping fluorescence spectra, but they can be distinguished by high performance liquid chromatography (HPLC)^68. Rotenone increased 2-OH-Mito-E^+ about two-fold, without increasing Mito-E^+. Thus, any increased fluorescence observed on treating cells with rotenone could be ascribed to an increase in 2-OH-Mito-E^+, and decreased fluorescence by an anti-oxidant in rotenone-treated cells was likely from a decrease in 2-OH-Mito-E^+.
(§2) The cells were then washed once with PBS, placed back in the DMEM experimental medium, and incubated with the indicated drugs for 30 min. At the end of the incubation period, nuclei of both the MitoSOX Red- and JC-1-treated cells were stained with […] 4′,6-diamidino-2-phenyl-indole (DAPI) for 3 min, washed once with PBS, and returned to the DMEM experimental medium. The cover slips were removed from the wells, mounted in the DMEM experimental medium, and red (MitoSOX Red and JC-1 aggregates), green (JC-1 monomers), and blue (DAPI) fluorescence intensity was assessed using a Keyence BZ-X700 fluorescence microscope at the following paired excitation/emission wavelengths, respectively: 560/630, 490/525, and 360/460 nm.
To assess if cobinamide reduces oxidative stress in cells and to compare its […] efficacy to that of cobalamin, imisopasem, and MnTBAP, several sets of experiments were performed. First, whether cobinamide reduces mitochondrial-generated O2·^− was evaluated using the fluorescent probe MitoSOX Red. H9c2 rat embryonal cardiomyocytes were treated with rotenone, an inhibitor of complex I, to increase mitochondrial O2·^−. […] Monitoring the UV-visible spectrum of cobinamide is a sensitive means to assess ligand binding^38.

H9c2 cells = test: Mitochondrial membrane potential, JC-1 red to green fluorescence; format: cell-based, rat; conditions: H9c2, 5 μM rotenone 30 min, drugs at 2.5 μM
Procedure: as §1, §2
Increased mitochondrial O2·^− by rotenone would be expected to reduce the mitochondrial membrane potential (ΔΨm), due in part to activation of uncoupling proteins^39. […] Rotenone caused an almost complete loss of red fluorescence and a striking increase in green fluorescence in the cells, indicating a marked decrease in ΔΨm (FIGS. 3C-3D).

[7] = tested on: Jun N-terminal kinase (JNK) phosphorylation in H9c2 cells; test: H2O2-induced JNK phosphorylation, immunoblotting; format: cell-based, rat; conditions: H9c2, 100 μM H2O2 30 min, drugs at 100 μM
Text: as §1

COS-7 cells = conditions: COS-7, 1 mM paraquat 3 h, 100 μM drug, counted 48 h later
Procedure: as §1
Finally, whether cobinamide could alleviate the effects of oxidative stress induced by yet another mechanism in a different cell type was tested using paraquat-treated COS-7 cells. Paraquat generates O2·^− through a redox cycling mechanism and increases both intracellular O2·^− and H2O2^42.

D. melanogaster = test: Survival of fruit flies during paraquat poisoning; format: in vivo; conditions: 20 mM paraquat with 0.8 mM drug in food, over 7 d
Procedure: The number of live flies was counted each day for 7 d. The experiment was repeated seven times, for a total of 70 flies per condition. The percent surviving flies was calculated; error bars represent standard deviations and are shown in one direction only for sake of clarity. […] Chi, cobinamide in Panel A and histidyl-cobinamide in Panels B-K; Imp, imisopasem; MnTP, MnTBAP; CbL, cobalamin; DNPH, 2,4-dinitrophenylhydrazine; ND, non-diabetic; D, diabetic; Veh, vehicle.
To test cobinamide in a whole animal, D. melanogaster was selected for initial studies, and oxidative stressed was increased in the files by administering paraquat in their food. Cobinamide was again compared to imisopasem, MnTBAP, and hydroxocobalamin, all administered in food.

In the case of `C/C1=C2/[N-][C@H]([C@H](CC(N)=O)[C@@]2(C)CCC(=O)NC[C@H](C)OP(=O)([O-])O[C@H]2[C@@H](O)[C@@H](n3cnc4cc(C)c(C)cc43)O[C@@H]2CO)[C@]2(C)N=C(/C(C)=C3N=C(/C=C4N=C1[C@@H](CCC(N)=O)C\4(C)C)[C@@H](CCC(N)=O)[C@]\3(C)CC(N)=O)[C@@H](CCC(N)=O)[C@]2(C)CC(N)=O.[Co+2]` (stereo in doubt) [Cobalamin(II)], the “Oxidation in the presence of oxygen” value is listed as “rapidly oxidized back to cobalamin(III)”, the “Rate constant, reaction with superoxide (O2·^−), published” value [1] is listed as 3.8e+08 M⁻¹ s⁻¹ and the “Rate constant, reaction with hydrogen peroxide (H2O2), published” value [2] is listed as 1.4 × 10^2. The “Rate constant, reaction with peroxynitrite (ONOO^−), published” value [3] was 3.7 × 10^5 (14) M^−1 s^−1 and the “Ka, binding of nitric oxide (·NO), published” value [4] was “Ka: 1.5 × 10^8 (51) M^−1”.

For histidyl-cobinamide, the Blood pressure [5] was “No difference in the blood pressure”.

For `[Cl-].[Cl-].[Mn+2].c1cc2nc(c1)CN[C@@H]1CCCC[C@H]1NCCN[C@@H]1CCCC[C@H]1NC2` [Imisopasem, imisopasem manganese], the “MitoSOX red fluorescence in rotenone-treated cells” value [6] was “reduced the fluorescent signal substantially”, the “JC-1 red to green fluorescence ratio (ΔΨm) in rotenone-treated cells” value (H9c2 cells) was “modest degrees of recovery” and the “JNK phosphorylation in H2O2-treated cells” value [7] was “small non-significant effects”. The “Effect on cell growth of paraquat-treated cells” value (COS-7 cells) was “neither imisopasem nor MnTBAP had an effect”, the “Effect on mortality of paraquat-exposed flies” value (D. melanogaster) was “no significant effect” and the “Rate constant, reaction with superoxide (O2·^−), published” value [1] was 1.6e+07 M⁻¹ s⁻¹. The “Rate constant, reaction with hydrogen peroxide (H2O2), published” value [2] was 8.2, the “Rate constant, reaction with peroxynitrite (ONOO^−), published” value [3] was “No activity (26)” and the “Rate constant, reaction with nitric oxide (·NO), published” value ([4]; second order) was “No activity (26)”.
